Reference: patent US20130130992A1, “DIPEPTIDE DERIVATIVE FOR THE TREATMENT OF CANCER” (ONCOTEST GMBH, priority 2010, published 2013)
“And” between values parts separate entries of the source, which are not always exact repeats. Equal values may be shown once.

Experiments:
Format in all cases: cell-based
BXF 1352L = test: Monolayer propidium iodide assay, BXF 1352L; conditions: Homo sapiens, 96 h, Bladder, 4 days of treatment
Text: (§1) Oncotest GmbH, Germany's proprietary tumor cell line panel comprises 40 cell lines. These cell lines were derived from 15 different tumor histotypes, each represented by 1 to 6 different cell lines. Cell lines were established from cancer of the bladder (3), colon (4), head and neck (1), lung (6), breast (3), pancreas (3), prostate (4), ovary (2), kidney (3), liver (1), stomach (1) and the uteri body (1), as well as from melanoma (3), sarcoma (2) and pleuramesothelioma (3). Out of these 40 cell lines, 24 cell lines were established at Oncotest, from patient-derived tumor xenografts. […]
(§2) Stock solutions of the compound of formula (1) (3.3 mM in DMSO) were prepared and stored in small aliquots (200 μl) at −20° C. […] Each concentration was evaluated in triplicate. […]
(§3) Cells were plated in 96-well flat-bottom microtiter plates at a cell density of 4,000 to 20,000 cells/well. […] After an incubation period of 1-2 hours at room temperature, fluorescence (FU) was measured using the Cytofluor 4000 microplate reader (excitation λ=530 nm, emission λ=620 nm) to quantify the amount of attached viable cells. […] Based on the T/C values, relative IC50 values were determined by non-linear regression (log [conc. of inhibitor] versus response (% T/C)) using the GraphPad Prism® analysis software (Prism 5 for Windows, version 5.01, GraphPad Software Inc., CA). […]

OVXF OVCAR3 = test: Monolayer propidium iodide assay, OVXF OVCAR3; conditions: Homo sapiens, OVCAR-3, 96 h; OVXF OVCAR3, Ovarian; 4 days of treatment
Text: as §1, §2, §3

CXF RKO = test: Monolayer propidium iodide assay, CXF RKO; conditions: Homo sapiens, 96 h, Colon, 4 days of treatment
Text: as §1, §2, §3

BXF T 24 = test: Monolayer propidium iodide assay, BXF T 24; conditions: Homo sapiens, 96 h; BXF T 24, Bladder; 4 days of treatment
Text: as §1, §2, §3

HNXF CAL 27 = test: Monolayer propidium iodide assay, HNXF CAL 27; conditions: Homo sapiens, 96 h; HNXF CAL 27, Head and Neck; 4 days of treatment
Text: as §1, §2, §3

LXFA 289L = test: Monolayer propidium iodide assay, LXFA 289L; conditions: Homo sapiens, 96 h, Lung, 4 days of treatment
Text: as §1, §2, §3

PAXF 1657L = test: Monolayer propidium iodide assay, PAXF 1657L; conditions: Homo sapiens, 96 h, Pancreas, 4 days of treatment
Text: as §1, §2, §3

MAXF 401NL = test: Monolayer propidium iodide assay, MAXF 401NL; conditions: Homo sapiens, 96 h, Mammary, 4 days of treatment
Text: as §1, §2, §3

PXF 698L = test: Monolayer propidium iodide assay, PXF 698L; conditions: Homo sapiens, 96 h, Pleuramesothelioma, 4 days of treatment
Text: as §1, §2, §3

RXF 1781L = test: Monolayer propidium iodide assay, RXF 1781L; conditions: Homo sapiens, 96 h, Renal, 4 days of treatment
Text: as §1, §2, §3

CXF HT 29 = test: Monolayer propidium iodide assay, CXF HT 29; conditions: Homo sapiens, 96 h; CXF HT 29, Colon; 4 days of treatment
Text: as §1, §2, §3

PRXF 22RV1 = test: Monolayer propidium iodide assay, PRXF 22RV1; conditions: Homo sapiens, 96 h; PRXF 22RV1, Prostate; 4 days of treatment
Text: as §1, §2, §3

MEXF 1341L = test: Monolayer propidium iodide assay, MEXF 1341L; conditions: Homo sapiens, 96 h, Melanoma, 4 days of treatment
Text: as §1, §2, §3

LXFA 629L = test: Monolayer propidium iodide assay, LXFA 629L; conditions: Homo sapiens, 96 h, Lung, 4 days of treatment
Text: as §1, §2, §3

PAXF PANC 1 = test: Monolayer propidium iodide assay, PAXF PANC 1; conditions: Homo sapiens, 96 h; PAXF PANC 1, Pancreas; 4 days of treatment
Text: as §1, §2, §3

SXF SAOS2 = test: Monolayer propidium iodide assay, SXF SAOS2; conditions: Homo sapiens, SAOS-2, 96 h; SXF SAOS2, Sarcoma; 4 days of treatment
Text: as §1, §2, §3

MEXF 276L = test: Monolayer propidium iodide assay, MEXF 276L; conditions: Homo sapiens, MEXF276L, 96 h, Melanoma, 4 days of treatment
Text: as §1, §2, §3

LIXF 575L = test: Monolayer propidium iodide assay, LIXF 575L; conditions: Homo sapiens, 96 h, Liver, 4 days of treatment
Text: as §1, §2, §3

MAXF MDA 231 = test: Monolayer propidium iodide assay, MAXF MDA 231; conditions: Homo sapiens, MDA-MB-231, 96 h; MAXF MDA 231, Mammary; 4 days of treatment
Text: as §1, §2, §3

GXF 251 L = test: Monolayer propidium iodide assay, GXF 251 L; conditions: Homo sapiens, 96 h, Gastric, 4 days of treatment
Text: as §1, §2, §3

SXF TE671 = test: Monolayer propidium iodide assay, SXF TE671; conditions: Homo sapiens, TE-671, 96 h; SXF TE671, Sarcoma; 4 days of treatment
Text: as §1, §2, §3

PRXF PC3M = test: Monolayer propidium iodide assay, PRXF PC3M; conditions: Homo sapiens, PC-3M, 96 h, Prostate, 4 days of treatment
Text: as §1, §2, §3

PRXF LNCAP = test: Monolayer propidium iodide assay, PRXF LNCAP; conditions: Homo sapiens, 96 h, Prostate, 4 days of treatment
Text: as §1, §2, §3

PAXF 546L = test: Monolayer propidium iodide assay, PAXF 546L; conditions: Homo sapiens, 96 h, Pancreas, 4 days of treatment
Text: as §1, §2, §3

LXFL 1121L = test: Monolayer propidium iodide assay, LXFL 1121L; conditions: Homo sapiens, 96 h, Lung, 4 days of treatment
Text: as §1, §2, §3

[1] = system: panel of 40 human tumor cell lines; test: Monolayer propidium iodide assay, whole panel
Text: Oncotest GmbH, Germany's proprietary tumor cell line panel comprises 40 cell lines. These cell lines were derived from 15 different tumor histotypes, each represented by 1 to 6 different cell lines. Cell lines were established from cancer of the bladder (3), colon (4), head and neck (1), lung (6), breast (3), pancreas (3), prostate (4), ovary (2), kidney (3), liver (1), stomach (1) and the uteri body (1), as well as from melanoma (3), sarcoma (2) and pleuramesothelioma (3). Out of these 40 cell lines, 24 cell lines were established at Oncotest, from patient-derived tumor xenografts. The other 16 cell lines were either provided by the NCl (Bethesda; MD, USA) or were purchased from ATCC (Rockville, Md., USA) or DSMZ (Braunschweig, Germany).
Cell lines were routinely passaged once or twice weekly and maintained in culture for upto 20 passages. All the cells were grown at 37° C. in a humidified atmosphere with 5% (Carbon Dioxide) CO2 in RPMI 1640 medium supplemented with 10% (v/v) fetal calf serum (FCS) and 0.1 mg/ml gentamicin (medium and all other components from PAA, Colbe, Germany). Authenticity of all cell lines was proven by STR (short tandem repeat) analysis, a PCR based DNA-fingerprinting methodology.
Stock solutions of the compound of formula (1) (3.3 mM in DMSO) were prepared and stored in small aliquots (200 μl) at −20° C. An aliquot of the stock solution was thawed on the day of use and stored at room temperature prior to and during dosing. The subsequent dilutions were done with complete RPMI 1640 cell culture medium as follows: the stock solution was diluted 1:22 followed by serial dilutions finally resulting in a (compared to the test concentration) 15-fold higher concentration. For the final dilution step (1:15), 10 μl/well of the solution was directly added to 140 μl/well culture medium. Compound of formula (1) [also referred as test compound] was tested at 0.00032, 0.001, 0.0032, 0.01, 0.032, 0.1, 0.32, 1, 3.2 and 10 μM. Each concentration was evaluated in triplicate.
A modified Propidium Iodide assay was used to assess the effect of the compound of formula (1) on the growth of the human tumor cell lines and was designed as in reference, Anti-cancer Drugs, 6, 522-532, (1995), the disclosure of which is incorporated by reference for the teaching of the assay.
Cells were plated in 96-well flat-bottom microtiter plates at a cell density of 4,000 to 20,000 cells/well. After a 24 hr recovery period to allow the cells to resume exponential growth, the compound of formula (1) was applied at 10 concentrations in half-log increments in triplicates and treatment continued for 4 days. After 4 days of treatment, cells were next washed with 200 μl phosphate buffer solution (PBS) to remove dead cells, then 200 μl of a solution containing 7 μg/ml propidium iodide (PI) and 0.1% (v/v) Triton X-100 were added to the wells. After an incubation period of 1-2 hours at room temperature, fluorescence (FU) was measured using the Cytofluor 4000 microplate reader (excitation λ=530 nm, emission λ=620 nm) to quantify the amount of attached viable cells. Pharmacological effects on cell proliferation and survival were expressed as Test/Control×100 (% T/C) values, with T and C representing the fluorescence read-outs for wells with and without test compound, respectively, i.e. T/C represents the ratio of viable cell numbers following incubation of cell line with and without test compound. Based on the T/C values, relative IC50 values were determined by non-linear regression (log [conc. of inhibitor] versus response (% T/C)) using the GraphPad Prism® analysis software (Prism 5 for Windows, version 5.01, GraphPad Software Inc., CA). For calculation of mean IC50 values over the 40 cell lines as tested, the geometric mean was selected. If Graph Pad Prism could not calculate reliable IC50 values by non-linear regression, the IC50 value was estimated by visual inspection of the concentration-effect curve.

IC50 (BXF 1352L): 103 nM | IC50 (OVXF OVCAR3): 195 nM | IC50 (CXF RKO): 74 nM | IC50 (BXF T 24): 50 nM | IC50 (HNXF CAL 27): 39 nM | IC50 (LXFA 289L): 41 nM | IC50 (PAXF 1657L): 39 nM | IC50 (MAXF 401NL): 64 nM | IC50 (PXF 698L): 178 nM | IC50 (RXF 1781L): 260 nM | IC50 (CXF HT 29): 137 nM | IC50 (PRXF 22RV1): 159 nM | IC50 (MEXF 1341L): 102 nM | IC50 (LXFA 629L): 40 nM | IC50 (PAXF PANC 1): 59 nM | IC50 (SXF SAOS2): 185 nM | IC50 (MEXF 276L): 90 nM | IC50 (LIXF 575L): 295 nM | IC50 (MAXF MDA 231): 90 nM | IC50 (GXF 251 L): 93 nM | IC50 (SXF TE671): 82 nM | IC50 (PRXF PC3M): 47 nM | IC50 (PRXF LNCAP): 122 nM | IC50 (PAXF 546L): 16 nM | IC50 (LXFL 1121L): 47 nM | Tumor selectivity: number of cell lines with individual IC50 < mean IC50 ([1]; Bladder): 2 out of 3 and 2/3 | Tumor selectivity: number of cell lines with individual IC50 < mean IC50 ([1]; Breast): 1/3
Compound: CCCC1CCCCCC(O)CC(=O)NC2CSSCC(NC2=O)C(=O)O1 (stereo not shown) [compound of formula (1)]
antitumor activity in all cell lines as tested ([1]; 0.00032 to 10 μM, 40 cell lines, 15 histotypes): concentration-dependent antitumor activity
